What was measured:
STAT3 = test: Phospho-STAT3 in SU-DHL-1 cells (Luminex multiplex); format: cell-based, human; details: 0-40 μM, 12 hours
Text: FIGS. 6A-6B. EP009 treatment disrupts constitutive JAK3/STAT3 pathway activation and down-regulates CD30 cell surface expression in human ALCL cells. (A) Kit225 (lane a), SUP-M2 (lane b), Karpas299 (lane c), DEL (lane d) and SU-DHL-1 (lane e) total cell lysates were separated by 7.5% SDS-PAGE (upper panel) or were immunoprecipitated (IP) with JAK3 antibodies (lower panel) and separated on 7.5% SDS-PAGE, and then subjected to Western blot (WB) analysis with the indicated antibodies. (B) SU-DHL-1 cells were treated with vehicle (PBS; lane a) or increasing amounts of EP009 (0-40 μM; lanes b-e) for 12 hours. Cells were then lysed, clarified, and immunoprecipitated (IP) with anti-JAK3 (α-JAK3), and subjected to Western blot (WB) analysis with anti-phosphotyrosine (α-pY). Blots were stripped and reprobed with α-JAK3 to verify equivalent protein loading. (C) SU-DHL-1 cells were treated with vehicle (PBS) or increasing amounts of EP009 (0-40 μM) for 12 hours. […] Values represent pSTAT mean fluorescence intensity (MFI) normalized to corresponding GAPDH MFI, while error bars represent the standard deviation (n=2). Statistical significance was determined using Student's t-test. […] Cells were then analyzed by flow cytometry for CD30 expression. […]

JNK1/2 = test: Phospho-JNK1/2 in SU-DHL-1 cells (Luminex multiplex); format: cell-based, human; details: 24 hours, dose-dependent
Description: FIGS. 8A-8F. Effect of EP009 on ALCL cells is mediated through selective activation of ERK1/2 and JNK1/2 stress signaling pathways, and inhibition of p70 S6 kinase growth signaling pathways. SU-DHL-1 cells were treated with vehicle (PBS) or increasing amounts of EP009 (0-50 μM) for 24 hours. Cells were then lysed, clarified, and subjected to Luminex multiplex analysis to detect phosphorylated (A) ERK1/2, (B) JNK1/2, (C) p70 S6 kinase, (D) IκBα, (E) CREB, and (F) p38. Values represent mean fluorescence intensity (MFI) normalized to corresponding GAPDH MFI, while error bars represent the standard deviation (n=2). Representative data from two independent experiments are shown. Statistical significance was determined using Student's t-test. (*, p<0.05).
The MILLIPLEX MAP 8-plex Multi-Pathway Signaling Phosphoprotein kit (Millipore) was used to detect phosphorylated ERK1/2 (Thr185/Tyr187), STAT3 (Ser727), JNK1/2 (Thr183/Tyr185), p70 S6 kinase (Thr412), IκBα (Ser32), STAT5A/B (Tyr694/699), CREB (Ser133), and p38 (Thr180/Tyr182). The MILLIPLEX MAP 5-plex STAT Phosphoprotein kit (Millipore) was used to detect phosphorylated STAT1 (Tyr701), STAT2 (Tyr690), STAT3 (Tyr705), STAT5A/B (Tyr694/699), and STAT6 (Tyr641). The MILLIPLEX MAP Human Apoptosis 3-plex kit (Millipore) was used to detect cleaved PARP, cleaved Caspase 3, and total GAPDH for protein normalization.

AKT1 = AKT1 (Homo sapiens, UniProt P31749); test: Kinase panel: AKT1; format: biochemical; details: 10 μM EP009
Chain of AKT1 (P31749 whole entry): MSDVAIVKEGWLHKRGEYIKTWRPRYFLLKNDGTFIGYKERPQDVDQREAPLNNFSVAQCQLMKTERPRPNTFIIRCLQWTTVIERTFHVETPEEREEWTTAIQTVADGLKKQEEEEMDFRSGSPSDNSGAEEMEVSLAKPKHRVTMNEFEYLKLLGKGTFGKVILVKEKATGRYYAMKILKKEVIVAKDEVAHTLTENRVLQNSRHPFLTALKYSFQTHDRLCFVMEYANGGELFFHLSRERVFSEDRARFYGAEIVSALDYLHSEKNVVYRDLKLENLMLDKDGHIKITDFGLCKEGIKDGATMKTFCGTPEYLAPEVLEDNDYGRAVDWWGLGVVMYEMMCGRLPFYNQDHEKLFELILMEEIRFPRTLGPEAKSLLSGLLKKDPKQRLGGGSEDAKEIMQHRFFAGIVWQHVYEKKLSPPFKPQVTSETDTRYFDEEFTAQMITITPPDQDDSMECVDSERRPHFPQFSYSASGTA
Description: (§1) Achieving JAK3 selectivity remains a significant challenge in the development of new small molecules for the treatment of cancer and immune-derived diseases. As such, the inventors employed cell-based screening assays of small-molecule libraries based upon the chemical scaffold of the established JAK3 inhibitor NC1153 (Stepkowski et al., J Immunol. (2005), 175(7):4236-4246) EP009 (FIG. 2A) was selected as a lead compound due to improved intrinsic stability (>95% purity in various solvents at 37° C. for 24 hours; FIG. 3) and high-degree of JAK3 selectivity. To test JAK3 versus JAK2 specificity of EP009, the IL-2/JAK3-dependent Kit225, and IL-3/JAK2-dependent BaF/3 cell lines were used. Kit225 and BaF/3 cells growing in the presence of IL-2 or IL-3, respectively, were treated with ascending concentrations of EP009 for 12 hours and cellular JAK3 and JAK2 tyrosine phosphorylation levels detected by Western blot analysis (FIGS. 2B and 2C). Following densitometric analysis, EP009 was determined to dose-dependently reduce IL-2-mediated JAK3 tyrosine phosphorylation with a cellular 50% inhibitory concentration (IC50) between 10 and 20 μM (FIG. 2B). […] To globally evaluate specificity, the inhibitory activity of EP009 was measured against a panel of protein kinases distributed throughout the kinome using the scanEDGE profiling service (KINOMEscan). […]

CDK7 = CDK7 (Homo sapiens, UniProt P50613); test: Kinase panel: CDK7; format: biochemical; details: 10 μM EP009
Chain of CDK7 (P50613 whole entry): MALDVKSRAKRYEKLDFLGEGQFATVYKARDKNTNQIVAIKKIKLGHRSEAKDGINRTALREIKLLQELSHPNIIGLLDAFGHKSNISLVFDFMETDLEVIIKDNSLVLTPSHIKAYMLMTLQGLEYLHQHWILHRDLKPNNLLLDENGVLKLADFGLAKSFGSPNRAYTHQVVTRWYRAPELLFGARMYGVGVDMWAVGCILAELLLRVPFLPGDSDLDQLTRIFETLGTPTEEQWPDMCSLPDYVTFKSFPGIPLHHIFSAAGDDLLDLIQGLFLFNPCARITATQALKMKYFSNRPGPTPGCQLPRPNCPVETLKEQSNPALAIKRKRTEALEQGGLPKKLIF
Description: as §1

MAP3K4 = MAP3K4 (Homo sapiens, UniProt Q9Y6R4); test: Kinase panel: MAP3K4; format: biochemical; details: 10 μM EP009
Chain of MAP3K4 (Q9Y6R4 whole entry): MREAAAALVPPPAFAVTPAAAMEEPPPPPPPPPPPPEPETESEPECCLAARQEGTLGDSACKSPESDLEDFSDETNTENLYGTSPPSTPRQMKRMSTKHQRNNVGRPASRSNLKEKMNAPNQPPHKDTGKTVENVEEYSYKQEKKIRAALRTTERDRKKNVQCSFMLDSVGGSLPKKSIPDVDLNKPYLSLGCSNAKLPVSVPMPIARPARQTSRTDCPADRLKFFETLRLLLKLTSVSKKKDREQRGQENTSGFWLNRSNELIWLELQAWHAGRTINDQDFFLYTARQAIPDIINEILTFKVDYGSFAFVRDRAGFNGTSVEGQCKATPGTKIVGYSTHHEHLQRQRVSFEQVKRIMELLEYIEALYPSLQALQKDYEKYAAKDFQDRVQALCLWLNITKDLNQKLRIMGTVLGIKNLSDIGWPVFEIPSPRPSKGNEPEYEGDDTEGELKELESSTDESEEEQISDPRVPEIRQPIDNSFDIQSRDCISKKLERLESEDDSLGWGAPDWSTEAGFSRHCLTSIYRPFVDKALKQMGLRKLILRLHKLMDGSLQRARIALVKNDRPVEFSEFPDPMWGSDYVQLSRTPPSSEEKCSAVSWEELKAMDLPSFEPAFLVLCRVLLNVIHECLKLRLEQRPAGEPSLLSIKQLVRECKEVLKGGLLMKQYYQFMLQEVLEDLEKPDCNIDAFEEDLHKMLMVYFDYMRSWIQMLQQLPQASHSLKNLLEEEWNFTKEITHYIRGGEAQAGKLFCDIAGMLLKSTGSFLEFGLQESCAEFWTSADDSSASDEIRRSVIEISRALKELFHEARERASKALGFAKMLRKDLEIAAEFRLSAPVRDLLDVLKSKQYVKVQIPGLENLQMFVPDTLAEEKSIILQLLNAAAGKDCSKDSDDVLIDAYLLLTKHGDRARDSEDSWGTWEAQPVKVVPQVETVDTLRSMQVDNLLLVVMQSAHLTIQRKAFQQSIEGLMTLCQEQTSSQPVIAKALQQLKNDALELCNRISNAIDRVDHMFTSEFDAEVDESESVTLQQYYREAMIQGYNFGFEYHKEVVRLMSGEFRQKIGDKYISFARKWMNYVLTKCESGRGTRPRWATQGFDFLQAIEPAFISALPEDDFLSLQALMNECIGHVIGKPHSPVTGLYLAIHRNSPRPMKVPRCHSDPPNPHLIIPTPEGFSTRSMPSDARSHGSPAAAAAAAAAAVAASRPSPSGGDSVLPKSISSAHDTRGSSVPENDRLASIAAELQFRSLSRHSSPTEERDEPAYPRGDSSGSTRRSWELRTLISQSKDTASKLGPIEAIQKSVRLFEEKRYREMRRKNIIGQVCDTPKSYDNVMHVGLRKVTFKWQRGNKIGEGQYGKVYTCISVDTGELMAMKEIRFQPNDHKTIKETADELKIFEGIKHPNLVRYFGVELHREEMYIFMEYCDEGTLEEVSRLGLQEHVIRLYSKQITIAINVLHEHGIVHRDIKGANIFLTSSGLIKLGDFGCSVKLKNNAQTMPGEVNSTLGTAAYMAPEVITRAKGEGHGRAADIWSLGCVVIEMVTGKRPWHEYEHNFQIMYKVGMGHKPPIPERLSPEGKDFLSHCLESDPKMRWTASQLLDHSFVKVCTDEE
Description: as §1

PLK1 = PLK1 (Homo sapiens, UniProt P53350); test: Kinase panel: PLK1; format: biochemical; details: 10 μM EP009
Chain of PLK1 (P53350 whole entry): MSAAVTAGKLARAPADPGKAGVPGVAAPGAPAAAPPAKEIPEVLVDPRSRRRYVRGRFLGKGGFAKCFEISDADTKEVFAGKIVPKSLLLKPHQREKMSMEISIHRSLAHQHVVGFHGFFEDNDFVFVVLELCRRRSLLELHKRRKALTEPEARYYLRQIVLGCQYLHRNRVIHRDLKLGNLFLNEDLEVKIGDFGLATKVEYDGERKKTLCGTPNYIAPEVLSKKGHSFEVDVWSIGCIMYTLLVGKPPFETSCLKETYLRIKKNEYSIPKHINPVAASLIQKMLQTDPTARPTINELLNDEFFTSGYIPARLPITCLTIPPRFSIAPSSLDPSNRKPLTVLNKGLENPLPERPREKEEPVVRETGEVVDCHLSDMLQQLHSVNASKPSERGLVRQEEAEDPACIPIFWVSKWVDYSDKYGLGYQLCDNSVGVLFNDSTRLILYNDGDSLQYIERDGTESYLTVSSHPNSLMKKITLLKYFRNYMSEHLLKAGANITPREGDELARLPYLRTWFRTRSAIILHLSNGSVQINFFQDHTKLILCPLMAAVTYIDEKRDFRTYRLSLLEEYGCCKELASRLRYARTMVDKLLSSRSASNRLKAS
Description: as §1

RAF1 = RAF1 (Homo sapiens, UniProt P04049); test: Kinase panel: RAF1; format: biochemical; details: 10 μM EP009
Chain of RAF1 (P04049 whole entry): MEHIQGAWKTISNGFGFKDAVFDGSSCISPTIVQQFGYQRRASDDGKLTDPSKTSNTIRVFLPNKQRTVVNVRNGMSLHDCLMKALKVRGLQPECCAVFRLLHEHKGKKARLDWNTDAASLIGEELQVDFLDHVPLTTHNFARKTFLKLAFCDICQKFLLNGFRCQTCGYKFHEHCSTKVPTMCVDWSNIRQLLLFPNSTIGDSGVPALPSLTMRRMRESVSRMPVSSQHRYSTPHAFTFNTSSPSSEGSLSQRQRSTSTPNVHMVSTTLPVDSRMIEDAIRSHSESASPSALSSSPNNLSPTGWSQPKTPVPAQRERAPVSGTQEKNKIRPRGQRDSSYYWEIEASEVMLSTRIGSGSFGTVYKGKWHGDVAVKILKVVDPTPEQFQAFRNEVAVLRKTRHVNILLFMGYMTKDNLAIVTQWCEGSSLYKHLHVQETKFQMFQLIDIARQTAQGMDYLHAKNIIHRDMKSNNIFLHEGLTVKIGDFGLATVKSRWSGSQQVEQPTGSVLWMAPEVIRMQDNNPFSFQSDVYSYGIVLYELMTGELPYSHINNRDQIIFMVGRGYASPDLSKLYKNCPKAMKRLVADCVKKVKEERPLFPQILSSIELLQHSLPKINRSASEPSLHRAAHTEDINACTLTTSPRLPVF
Description: as §1

ROCK2 = ROCK2 (Homo sapiens, UniProt O75116); test: Kinase panel: ROCK2; format: biochemical; details: 10 μM EP009
Chain of ROCK2 (O75116 whole entry): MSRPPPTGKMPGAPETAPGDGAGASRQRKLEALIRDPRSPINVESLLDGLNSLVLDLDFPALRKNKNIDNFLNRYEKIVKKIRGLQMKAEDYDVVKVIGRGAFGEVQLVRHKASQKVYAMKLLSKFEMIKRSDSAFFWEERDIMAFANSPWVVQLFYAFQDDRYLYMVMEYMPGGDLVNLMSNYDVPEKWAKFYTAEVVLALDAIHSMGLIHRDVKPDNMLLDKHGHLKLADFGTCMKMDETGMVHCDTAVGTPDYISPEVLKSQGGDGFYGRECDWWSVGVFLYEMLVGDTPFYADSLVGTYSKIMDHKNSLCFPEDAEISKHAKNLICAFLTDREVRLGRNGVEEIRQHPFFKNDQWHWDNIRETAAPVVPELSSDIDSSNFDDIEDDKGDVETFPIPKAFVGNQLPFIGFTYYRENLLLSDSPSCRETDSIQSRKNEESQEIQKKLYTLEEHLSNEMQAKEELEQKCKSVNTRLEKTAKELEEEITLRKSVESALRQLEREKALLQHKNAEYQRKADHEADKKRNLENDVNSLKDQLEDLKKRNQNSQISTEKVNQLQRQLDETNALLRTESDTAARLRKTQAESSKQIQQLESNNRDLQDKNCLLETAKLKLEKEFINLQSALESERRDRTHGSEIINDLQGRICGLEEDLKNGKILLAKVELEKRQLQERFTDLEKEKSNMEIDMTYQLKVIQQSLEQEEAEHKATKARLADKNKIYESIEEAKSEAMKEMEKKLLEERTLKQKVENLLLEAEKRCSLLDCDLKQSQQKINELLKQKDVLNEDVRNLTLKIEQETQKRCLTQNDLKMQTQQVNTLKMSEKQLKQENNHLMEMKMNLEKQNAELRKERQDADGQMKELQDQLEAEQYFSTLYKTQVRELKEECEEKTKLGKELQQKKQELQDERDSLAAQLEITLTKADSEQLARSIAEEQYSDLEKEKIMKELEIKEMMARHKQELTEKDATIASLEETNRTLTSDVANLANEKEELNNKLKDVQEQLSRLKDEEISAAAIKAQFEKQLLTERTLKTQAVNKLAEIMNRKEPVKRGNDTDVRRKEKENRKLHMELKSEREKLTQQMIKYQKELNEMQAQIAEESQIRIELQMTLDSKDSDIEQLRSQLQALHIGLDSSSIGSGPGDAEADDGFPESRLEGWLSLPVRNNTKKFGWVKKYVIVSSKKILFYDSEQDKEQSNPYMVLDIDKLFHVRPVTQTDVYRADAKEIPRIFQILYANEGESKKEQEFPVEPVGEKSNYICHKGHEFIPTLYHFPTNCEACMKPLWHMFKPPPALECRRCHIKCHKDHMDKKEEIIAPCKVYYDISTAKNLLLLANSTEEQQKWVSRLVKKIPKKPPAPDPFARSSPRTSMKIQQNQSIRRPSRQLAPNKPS
Description: as §1

**Q.** How did the “effect on phospho-STAT3 levels” value (STAT3) turn out when C=C1CCCCCCCCCC(CO)C1=O (centres unmarked) [EP009, 2-(Hydroxymethyl)-12-methylenecyclododecanone] was run?
**A.** Its value is “dose-dependent inhibition”.

**Q.** What about the JNK1/2 phosphorylation (JNK1/2) of the same molecule?
**A.** The JNK1/2 phosphorylation was “induced phosphorylation and activation”.

**Q.** And the “Kinase Activity (% of Control)” value (AKT1)?
**A.** Its value is 100 % of Control.

**Q.** What about the “Kinase Activity (% of Control)” value (CDK7) of the same molecule?
**A.** The value was 99 % of Control.

**Q.** What about the “Kinase Activity (% of Control)” value (MAP3K4) of the same molecule?
**A.** Its value is 87 % of Control.

**Q.** And the “Kinase Activity (% of Control)” value (PLK1)?
**A.** Its value is 100 % of Control.

**Q.** And the “Kinase Activity (% of Control)” value (RAF1)?
**A.** The value was 97 % of Control.

**Q.** And the “Kinase Activity (% of Control)” value (ROCK2)?
**A.** Its value is 99 % of Control.

From patent US9371265B2, “Compositions and methods related to inhibitors of JAK kinase” (EP PHARMA, INC., priority 2012, dated 2016)
